Test: passive permeability, PAMPA, ADME assay (AID 1508612)
Conditions: pH 7.4, 30.0 min, 50.0 µM

Papp [nm/s] | SMILES
6710 | N#CC1CCN(c2nc(-c3ccc(Br)cc3)cs2)CC1
> 10000 | Brc1ccccc1-c1nc(NCc2ccc(-c3cccnc3)cc2)c2ccccc2n1
> 10000 | O=c1c2ccccc2nc(/C=C/c2cccnc2)n1Cc1ccccc1
> 10000 | Cn1c(C(=O)NCCc2ccccn2)nc2nc(-c3ccccc3)c(Cl)cc21
60.7 | Nc1nc(Nc2ccc(S(N)(=O)=O)cc2)n(C(=S)Nc2c(F)cccc2F)n1
270 | O=C1Nc2ccccc2/C1=C\c1cc(F)c(O)c(F)c1
956 | NC(=O)C1CCN(c2ncc(-c3cccc(N4CCCC4)c3)s2)CC1
1460 | CNS(=O)(=O)c1cc(-c2nn3c(C)nnc3c3ccccc23)ccc1C
4340 | CCOC(=O)c1c[nH]c2c3c(ccc2c1=O)CCCC3
< 10 | C#CCNC(=O)c1nc(-c2ccc([S+](C)(=O)[O-])cc2)c2cnccn12
1710 | Fc1cc(Nc2nc(-c3ccncc3)nc3ccccc23)ccc1-n1cncn1
> 10000 | Oc1ccc(CN2CC(CNc3ccccc3)C3(C2)CN(c2ccccc2)C3)cc1 (stereo not given)
< 10 | CC(=O)c1ccc(N2CCN(S(=O)(=O)c3ccc4[nH]c(=O)[nH]c4c3)CC2)cc1
8520 | Cc1cc(C)nc(NC(=S)N2CCN(c3cccc(OC(F)F)c3)CC2)c1
209 | O=C1CCCCc2cc(O)c(O)cc21
2890 | NC(=O)C1CCN(c2nccc(-c3ccc4c(c3)OCCO4)n2)CC1
695 | O=C1Nc2ccc(Cl)cc2/C1=C\c1cc(Cl)c(O)c(Cl)c1
11 | CC1(C)CCC(c2ccc(Cl)cc2)=C(CN2CCN(c3ccc(C(=O)NS(=O)(=O)c4ccc(N[C@H](CCN5CCOCC5)CSc5ccccc5)c(S(=O)(=O)C(F)(F)F)c4)cc3)CC2)C1
> 10000 | Cc1cnc(CNc2nc(-c3cccc(NS(C)(=O)=O)c3)nc3ccccc23)cn1
> 10000 | CCCN1CNc2c(c(=O)[nH]c(=S)n2CCc2cccc(Cl)c2Cl)C1
3430 | O=C1Nc2ccccc2/C1=C\c1ccc(O)c(F)c1
8680 | Cc1ccnc(NC(=S)N2CCN(c3ccc(Cl)cc3Cl)CC2)c1
> 10000 | Fc1ccc(Cc2nc3nccc(-c4cccs4)n3n2)cc1
> 10000 | Cc1cc(-c2ccc(C)c(S(=O)(=O)NCC3CCN(Cc4ccc(F)cc4)CC3)c2)on1
4210 | C=Cc1ccc(C(=O)N2CCCC(CCC(=O)N3CCN(c4ccccn4)CC3)C2)cc1 (stereo not given)

Papp [nm/s] | SMILES
189 | O=[S+]([O-])(Nc1nccs1)c1ccc(NCc2cccc3c2NCC3)cc1
6950 | CNC(=O)c1ccc(C)c(-n2c(C)cc(OCc3ccc(F)cc3F)c(Br)c2=O)c1
> 10000 | C[C@H]1CN(C(=O)Nc2ccc(F)cc2)C[C@@H]1c1nc(-c2ccccc2)no1
4550 | Fc1ccc(F)c(Nc2nc(-c3ccncc3)nc3ccccc23)c1
91.7 | O=C(Cc1ccc(Cl)c(Cl)c1)Nc1ccc(S(=O)(=O)Nc2ccon2)cc1
< 10 | Cc1noc(C)c1-c1ccc(-c2cc(C(N)=O)c(NC(N)=O)s2)c(O[C@H]2CCNC2)c1
7150 | O=C1c2ccccc2-n2c1nc1ccccc1c2=O
9260 | CCOc1ccc(/C=C/c2nc3ccccc3n2S(=O)(=O)c2ccc(Br)cc2)cc1
6960 | COc1cccc(S(=O)(=O)Nc2cnccc2C(=O)Nc2nc(-c3ccccc3)cs2)c1
46.5 | CCc1ccc(C2N=C(N)Nc3nc4ccccc4n32)cc1 (stereo not given)
8220 | COc1ccc(N(C)C(=O)c2cc3c(s2)-c2ccccc2OC3)cc1
3970 | COc1ccccc1Nc1cnc2ccc(-c3ccc(OC)c(OC)c3)nn12
6530 | O=C1CCCC2=C1C(c1[nH]ncc1Cl)N=C(Nc1nc3ccc(F)cc3o1)N2 (stereo not given)
394 | c1ccc(-c2cc(Nc3nc(-c4ccncc4)nc4ccccc34)n[nH]2)cc1
> 10000 | C[C@@H]1CN(CC(=O)N2CC(C)(C)c3ncc(Cc4ccc(F)cc4)cc32)[C@@H](CN2CCOC[C@H]2C)CN1
> 10000 | Cc1ccnc(NC(=S)N2CCN(c3ccc(C(F)(F)F)cc3[N+](=O)[O-])CC2)c1
6100 | COc1ccc(-n2c(C)cc(C3=NNC(=NC4CC4)SC3)c2C)cc1
3290 | COc1ccc(NC(=O)c2[nH]c(C)c(C(C)=O)c2C)cc1S(=O)(=O)N(C)C
1890 | COc1cc(C(=O)NC2CCCc3c2[nH]c2ccccc32)cc(OC)c1OC (stereo not given)
< 10 | Brc1ccc(-c2csc(N3CCOCC3)n2)cc1
< 10 | Cc1ccc(-c2cc(C(=O)Nc3ccc(S(=O)(=O)N(C)Cc4nccs4)cc3)c3ccccc3n2)cc1C
> 10000 | C=C[C@@]1(C)C[C@H](OC(=O)CSC(C)(C)CNC(=O)[C@@H](N)C(C)C)[C@@]2(C)C(C)CC[C@@]3(CCC(=O)[C@@H]32)[C@H](C)[C@H]1O (stereo not given in full)
1780 | CC(=O)c1c(C)[nH]c(C(=O)Nc2cccc([S+](=O)([O-])Nc3ccc(C#N)cc3)c2)c1C
2120 | COCCCOc1ccnc(CS(=O)c2nc3ccccc3[nH]2)c1C (stereo not given)
756 | O=C(O)c1ccnc2cc(C(OCC3CCC(F)(F)CC3)c3ccccc3Cl)[nH]c12 (stereo not given)

Papp [nm/s] | SMILES
4120 | COCCNc1ncc(-c2cccc(O)c2)c2c1OCC2
125 | CC1(C)C(=O)NC2=C1C(=O)C(=O)c1ccccc12
> 10000 | O=C(c1cnc(N2CCCCC2)c2ccccc12)N1CCN(c2ccccn2)CC1
1870 | Cc1ccc(-n2nc(C)c3c(-c4ccc(O)c(O)c4)c(C#N)c(N)nc32)cc1C
420 | Fc1cc(Nc2nc(-c3ccncc3)nc3ccccc23)ccc1-c1ccc2[nH]ncc2c1
< 10 | Nc1cccc(CNc2ccc(S(=O)(=O)Nc3nccs3)cc2)c1O
106 | O=S(=O)(Nc1nccs1)c1ccc(Nc2nc(-c3ccc(F)cc3)cs2)cc1
234 | Cc1ccc(S(=O)(=O)Nc2cc(Cl)ccc2C(=O)Nc2nc(-c3ccccc3)cs2)cc1
76.5 | O=[S+]([O-])(Nc1ccc(N2CCNCC2)cc1)c1ccc(NCc2cccc(Cl)c2O)cc1
> 10000 | Cc1cccc(-n2cnc3cc(C(=O)N4CCCC(C)(C)C4)ccc32)c1
1910 | NC(=O)C1CCN(c2nc(-c3ccc(Cl)cc3)cs2)CC1
> 10000 | CC(C)c1ccc(OCc2nc3c(n2Cc2ccccc2)C(=O)N(CC2CCOCC2)CCN3)cc1
> 10000 | Cc1cnc(CNc2nc(-c3ccccc3Cl)nc3ccccc23)cn1
> 10000 | COc1ccc(S(=O)(=O)N2CCN(C(=O)C3COc4ccccc4O3)CC2)cc1 (stereo not given)
2830 | Cc1ccc(C(=O)Nc2cccc(C(F)(F)F)c2)cc1Nc1nc(-c2cccnc2)nc2c1cnn2C
2880 | c1ccc(-c2cn[nH]c2)cc1
> 10000 | Cc1ccc(-n2ncc3c(NCCCN(C)C)ncnc32)cc1Cl
4170 | COc1ccnc(NC(=S)N2CCN(c3cccc(C(F)(F)F)c3)CC2)c1
< 10 | O=C(NCCCc1ccccc1)c1cccc(-c2cc(O)c3ncccc3c2)c1
6060 | Cc1cn2c(N)c(Cl)cc(C(=O)NCC3CCN(CC(C)C)CC3)c2n1
680 | Cn1c(=O)cc(C(=O)NC2CCCc3c2[nH]c2c(Cl)cccc32)c2ccccc21 (stereo not given)
> 10000 | CC(=O)Nc1nc(-c2ccc3c(c2)CCN3C(=O)c2ccccc2C)c(C)s1
8580 | COc1cc2c(cc1-c1c(C)noc1C)ncc1[nH]c(=O)n([C@H](C)c3ccccn3)c12

SMILES | Papp [nm/s]
CCOc1ccc(CCNC(=O)c2cc3ccncc3n2Cc2cccc(C)c2)cc1OCC | 206
Cc1cc(SCc2sc(-c3ccc(C(F)(F)F)c(F)c3)nc2C)ccc1OCC(=O)O | 4170

Reference: PubChem BioAssay AID1508612
